Values quoted from earlier work as cited in patent publication US6153225A (Elan Pharma International Limited, priority 1998, dated 2000).
Counter-ions that a name gives are not always drawn.

SMILES | pain relief compared with aspirin (menstrual cramps, toothaches, minor arthritis, injuries with inflammation) | remission of acute and very high intensity pain (naproxen sodium salt)
COc1ccc2cc([C@H](C)C(=O)O)ccc2c1 [Naproxen, d-2(6-methoxy-2-naphthyl)propionic acid] | more potent pain reliever than aspirin | –
COc1ccc2cc([C@H](C)C(=O)O)ccc2c1 [naproxen sodium salt] | – | rapid and sustained remission
